By IC50 is commonly meant the concentration at which inhibition is half-maximal. In general, pIC50 refers to the negative decadic logarithm of the IC50, by convention in mol/L.

The values below come from paper PMC4552634, “A New Set of Chemical Starting Points with Plasmodium falciparum Transmission-Blocking Potential for Antimalarial Drug Discovery” (PLoS ONE, 2015).

pIC50: −log10 of the molar value. Where two headings read alike, the source gives them in different places. A value given as a limit tells only on which side of the number the result lay.

The subject of data set [1] is P. falciparum stage V gametocytes. The data set is described as follows: Gametocytocidal ATP bioluminescence assay (single point 5 μM and 1 μM, dose-response). The conditions noted are these: for Ratio IC50 HepG2/IC50 P. falciparum: IC50 HepG2 divided by IC50 P. falciparum gametocytes; for IC50: P. falciparum gametocytes, average, read-out: IC50 Pf Gametocytes average, IC50 (µM) average; for pIC50: sexual stages (gametocytes), dose-response, read-out: IC50 sexual. It is filed as cell-based, Plasmodium falciparum.
Experimental: Purified stage IV-V gametocytes were obtained as previously described [10]. Single point ATP bioluminescence assay and dose–response of positive hits was determined in accordance with the previously published protocol [10].

Data set [2] has as its system luciferase reaction (BacTiter-Glo). The data set is described as follows: Interference assay (inhibition of the BacTiter-Glo luciferase reaction). Type of data set: biochemical. Set-up: concentration or dose not given beside the values. The note with it: ATP interference assay. As for the experimental part: To discard possible false-positive results, we performed an interference assay in parallel. […] […]. The ATP solution was made by dissolving ATP powder (ATP standard from the ATPlite 1 step assay kit, reference 6016731, Perkin Elmer) in culture medium. The positive control used was the Luciferase Inhibitor I Calbiochem (Merck, 119113) at 100 μM.

The subject of data set [3] is P. falciparum asexual stages. The conditions noted are these: asexual stages; TCAMS data; read-out: IC50 asexual; cited from earlier work.
The next data set has as its system HepG2 cells. The data set is described as follows: Cytotoxicity in HepG2 cells (intracellular ATP, ATPlite, 48 h). Type of data set: cell-based, human. The conditions noted are these: HepG2 cells; IC50 per ratio column head; unit inferred.

Take `CCN(CC)CCCNc1nccc(N2CCc3ncnc(Nc4ccc(OCc5cccc(F)c5)c(Cl)c4)c3C2)n1` [TCMDC-135406]: in data set [1], the “Ratio IC50 HepG2/IC50 P. falciparum” value is 8, the half-maximal inhibitory concentration (IC50) worked out at 0.72 µM and the pIC50 is 6.15. Further, in data set [2], the “% Control luminiscence” value is given as 100%. Besides, the negative-log IC50 (pIC50) in data set [3] was 6.95. The pIC50 with HepG2 cells was 5.25.
As for `CNCCNc1nccc(N2CCc3ncnc(Nc4ccc(OCc5cccc(F)c5)c(Cl)c4)c3C2)n1` [TCMDC-135478], in data set [1], the “Ratio IC50 HepG2/IC50 P. falciparum” value came out at 11, the IC50 was 0.67 µM and the pIC50 is 6.18. In data set [2], the “% Control luminiscence” value is on record as 98%. Also, the pIC50 in data set [3] is 6.71. The pIC50 in the data set with HepG2 cells was 5.15.
With `COC(=O)c1sc(-c2ccc(Cl)cc2)cc1N(CCCN1CCC(N2CCCCC2)CC1)S(=O)(=O)c1ccc(C)cc1` [TCMDC-135561], in data set [1], the “Ratio IC50 HepG2/IC50 P. falciparum” value stood at 1.3, the IC50 was 3.36 µM and the negative logarithm of the IC50 (pIC50) is 5.47. Further, in data set [2], the “% Control luminiscence” value is given as 93%. In addition, in data set [3], the pIC50 was 6.13. Besides, the pIC50 in the data set with HepG2 cells is 5.36.
In the case of `c1ccc2c(C3CCN(CCCCOc4ccc5c(c4)CCN(CC4CC4)CC5)CC3)c[nH]c2c1` [TCMDC-136244], the “Ratio IC50 HepG2/IC50 P. falciparum” value in data set [1] amounted to 10. In data set [1], the IC50 turned out to be 0.71 µM. Further, the “% Control luminiscence” value in data set [2] stood at 100%. In addition, the negative logarithm of the IC50 (pIC50) in data set [3] was 6.01; in the data set with HepG2 cells, 5.17.
`C[C@H]1CN(Cc2cccc(-c3cc(CNC(=O)c4cccc(CC5CCN(C)CC5)c4)ccc3F)c2)CCN1C` [TCMDC-136349]: in data set [1], the “Ratio IC50 HepG2/IC50 P. falciparum” value was determined as 8 and the IC50 was 0.85 µM. Moreover, the “% Control luminiscence” value in data set [2] is 100%. In addition, in data set [3], the pIC50 was 5.96. In the data set with HepG2 cells, the pIC50 is 5.16.
For `CN(C)Cc1ccc(-c2cccc(Nc3nccc(NCC(O)c4ccccc4)n3)c2)cc1` (centres unmarked) [TCMDC-136467], in data set [1], the “Ratio IC50 HepG2/IC50 P. falciparum” value is 6.52 and the half-maximal inhibitory concentration (IC50) is 0.9 µM. Also, the “% Control luminiscence” value in data set [2] is 100%. Also, the pIC50 in data set [3] was 6.43. For the same molecule, the negative-log IC50 (pIC50) with HepG2 cells is 5.23.
For the molecule `Cc1cc(OCCN2CCCCC2)ccc1NC(=O)c1cccc2c(=O)n(Cc3ccc(Cl)cc3)cnc12` [TCMDC-136727], in data set [1], the “Ratio IC50 HepG2/IC50 P. falciparum” value was 5 and the IC50 came out at 0.95 µM. Also, in data set [2], the “% Control luminiscence” value turned out to be 97%. In addition, the pIC50 in data set [3] was 5.98. The negative logarithm of the IC50 (pIC50) with HepG2 cells is 5.33.
On to `COc1cc2c(cc1CCNCCCCNCCc1cc3c(cc1OC)CCCC3)CCCC2` [TCMDC-137319], for which, in data set [1], the “Ratio IC50 HepG2/IC50 P. falciparum” value was <19, the IC50 was 0.08 µM and the pIC50 is 7.08. In data set [2], the “% Control luminiscence” value is 85%. The negative logarithm of the IC50 (pIC50) in data set [3] is 6.00. Further, the negative-log IC50 (pIC50) in the data set with HepG2 cells is > 5.81.
Turning to `C=CCNC(CCCCC)c1ccc(OCCOc2ccc(C(CCCCC)NCC=C)cc2)cc1` (centres unmarked) [TCMDC-137483], in data set [1], the “Ratio IC50 HepG2/IC50 P. falciparum” value is on record as 6.41, the half-maximal inhibitory concentration (IC50) worked out at 0.91 µM and the pIC50 was 6.04. Also, the “% Control luminiscence” value in data set [2] was found to be 100%. Moreover, the pIC50 in data set [3] is 6.25. In addition, the pIC50 in the data set on HepG2 cells was 5.24.
Take `CCCCC(NCC)c1ccc(OCCOc2ccc(C(CCCC)NCC)cc2)cc1` (centres unmarked) [TCMDC-137612]: in data set [1], the “Ratio IC50 HepG2/IC50 P. falciparum” value worked out at 14, the half-maximal inhibitory concentration (IC50) was 0.42 µM and the pIC50 is 6.37. Moreover, in data set [2], the “% Control luminiscence” value stood at 100%. Further, the negative-log IC50 (pIC50) in data set [3] was 6.03. In addition, the negative-log IC50 (pIC50) in the data set on HepG2 cells is 5.21.
In the case of `CCCCCCC(N)c1ccc(OCCCOc2ccc(C(N)CCCCCC)cc2)cc1` (centres unmarked) [TCMDC-137621], in data set [1], the “Ratio IC50 HepG2/IC50 P. falciparum” value came to 36, the half-inhibitory concentration (IC50) was 0.0533 µM and the negative-log IC50 (pIC50) was 7.28. In data set [2], the “% Control luminiscence” value worked out at 100%. Moreover, the pIC50 in data set [3] was 5.94. For the same molecule, in the data set with HepG2 cells, the pIC50 is 5.72.
